This note sets out measurements from EP1779900A1, “Cosmetic or dermatological composition for prevention of light-induced aging” (Apotheker Walter Bouhon GmbH, priority 2005, dated 2007).

A value given as a limit tells only on which side of the number the result lay.

This experiment deals with interstitiellen Kollagenase 1 (Matrixmetalloproteinase-1, MMP1). Nature of the experiment: Inhibition of UV-A-induced MMP1 mRNA expression in human dermal fibroblasts (real-time PCR, in vitro). The format is cell-based. As to conditions: 20 J/cm^2 UV-A, versus control. From the text: Es wird die Hemmung der UV-A-induzierten Genexpression am Beispiel der interstitiellen Kollagenase 1 (Matrixmetalloproteinase-1, MMP1) in humanen dermalen Fibroblasten untersucht. Die UV-A-induzierte Expression von MMP1 mRNS wird mittels Echtzeit PCR (Polymerase-Kettenreaktion) aus Zellen, die 24 Stunden nach der Bestrahlung mit 20 J/cm^2 geerntet worden sind, im Vergleich zu unbehandelten zeitgleichen Kontrollen bestimmt.
Da Serum Vitamin-A enthält, werden die verwendeten Zellkulturen für 24 Stunden serum-depriviert. Zur Kontrolle wird die Genexpression an unbehandelten Zellen ohne und mit UV-A-Bestrahlung ermittelt. In einer Konzentrationsreihe von 0,1 bis 30 µM an zugesetztem Retinol wird jeweils die Genexpression der unbestrahlten und der mit UV-A bestrahlten Zellkulturen bestimmt.
Wiederum wird eine Kontrollmessung der Genexpression an unbehandelten Zellkulturen mit und ohne UV-A-Bestrahlung durchgeführt. Den Zellkulturen wird in einer Konzentrationsreihe zwischen 5 und 100µM Generol® R, ein käuflich erwerbbares Produkt der Cognis France SA zugefügt. Generol® R ist eine Mischung aus verschiedenen Phytosterolen und wird aus Raps gewonnen. Generol® R besteht zu 40 bis 60% aus Sitosterol, 25 bis 40% Campesterol, 7 bis 18% Brassicasterol und einem geringem Anteil an Stigmasterol. Zum Erreichen der beschriebenen Konzentrationsreihe wurde Generol® R entsprechend verdünnt. […]
(Real-time PCR tracks product formation cycle by cycle.)

As to `CC1=C(/C=C/C(C)=C/C=C/C(C)=C/CO)C(C)(C)CCC1` [Vitamin-A, Retinol], the “Hemmung der MMP1-Expression” value (Vitamin-A 10-25 µM (series 0,1-30 µM Retinol), serum-deprived 24 h, cells harvested 24 h after irradiation) is at most 82%.

Regarding `Cc1c(C)c2c(c(C)c1OC(=O)CCC(=O)O)CCC(C)(CCCC(C)CCCC(C)CCCC(C)C)O2` (centres unmarked) [Vitamin-E-Sukzinat], the “Hemmung der MMP1 mRNS-Expression” value (Vitamin-E-Sukzinat 10-75 µM, 24 h after irradiation) is reported as at most 75%.
